Laboratory results as given in publication PMC3996874, “Esterase Active in Polar Organic Solvents from the Yeast Pseudozyma sp. NII 08165” (Enzyme Research, 2014).

Tested on: T1, LIP1 esterase
T1 construct: single band of 175 kDa on SDS-PAGE
Assay: pNP release at […] nm, Michaelis-Menten fit (GraphPad Prism)
Type: biochemical, Pseudozyma sp. NII 08165
Conditions: pH 8, 60 °C; 0.05-0.7 mM pNPP

Km: 10 µM
SMILES: CCCCCCCCCCCCCCCC(=O)Oc1ccc([N+](=O)[O-])cc1 [para-nitrophenyl palmitate]
